From patent US12133855B2, “Lipid-like nanocomplexes and uses thereof” (Trustees of Tufts College, priority 2018, dated 2024)

Columns and labels:
[1] = Thiol-triggered size variation of OCholB LNPs (DTT, cysteine; DLS); assay type: physicochemical; conditions: 10 mM DTT, 24 h
Text: The thiol-trigged degradation and dissociation of the OCholB LNPs were studied by time-dependent DLS measurements and TEM observation. […] The disruption of the vesicle structure is considered to be resulted from the thiol-exchange and disulfide bond cleavage reactions of OCholB lipidoids. We next investigated whether the thiol-containing molecules (e.g. albumin, cysteine, homocysteine, cysteinylglycine, etc.) in the serum may induce the structural disintegration of these disulfide bond-containing LNPs. The stabilities of LNPs in the presence of 20 μM of L-cysteine (Cys), which mimics the free thiols on the small- and macromolecules presented in the serum, were examined. […] While the degrees of size changes vary between lipidoids with different amine head groups, all lipidoids were more responsive to DTT (modeling intracellular conditions) than to Cysteine (modeling conditions in the blood serum).

HeLa cells [2] = test: Internalization of Nile red loaded nanoparticles (NR+ cells); assay type: cell-based; conditions: 8 h of exposure
Protocol: (§1) The internalization kinetics and efficiencies of OCholB LNPs were then studied using NR loaded LNPs and HeLa cells. […] Next, all of the NR delivery efficiencies of eight OCholB LNPs were determined after 8 h of exposure. […] Representative fluorescent images of NR/LNPs (NR/75-OCholB, NR/76-OCholB and NR/77-OCholB) treated HeLa cells are shown in FIG. 12D, from which it is easily observed that NR was delivered into the cells and mainly distributed in cytoplasm, by OCholB LNPs. Next, the internalization of negatively charged hydrophilic fluorescent dye, calcein, was studied. […] Next, the use of OCholB LNPs for the intracellular delivery of macromolecular cargo was explored, using fluorescent recombinant (−30)GFP-Cre protein and HeLa-DsRed cells as the model system. […] Delivery efficiency was tested at a range of (−30)GFP-Cre protein concentrations (25, 50 and 100 nM), with a consistent lipid/protein ratio (i.e., delivery with the final lipid concentration of 1.7, 3.3, and 6.6 μg mL^−1 respectively). 33.2%, 43.8% and 74% of GFP positive (GFP^+) cells were recorded for (−30)GFP-Cre/Lpf2k treated cells with the concentration of (−30)GFP-Cre 25 nM, 50 nM and 100 nM, respectively. […] The typical flow cytometry profiles of naked (−30)GFP-Cre protein and (−30)GFP-Cre loaded nanoparticles ((−30)GFP-Cre/75-OCholB, (−30)GFP-Cre/76-OCholB, (−30)GFP-Cre/77-OCholB and (−30)GFP-Cre/Lpf2k) treated HeLa-DsRed cells were shown in and FIG. 12H ([lipidoid]=6.6 μg mL^−1 and [(−30)GFP-Cre]=100 nM), which is consistent with the statistical results shown in FIG. 12G. Furthermore, the representative fluorescent images from the protein and protein/nanoparticle treated HeLa-DsRed cells are also shown in FIG. 12I.

HeLa-DsRed cells [3] = assay type: cell-based; conditions: (−30)GFP-Cre 25, 50 and 100 nM
Protocol: as §1

HeLa cells [4] = test: GFP mRNA delivery (GFP+ cells); assay type: cell-based; conditions: LNP/mRNA=10/1; [mRNA]=0.86 μg mL^−1; 24 h exposure
Text: Messenger RNA delivery has great potentials for cancer therapy, protein replacement therapy and neurological disorder treatments.^42 The intracellular delivery of mRNA using OCholB LNPs was studied using GFP mRNA and different cell lines (HeLa, B16F10, HEK-293, NIH/3T3 and Jurkat). The weight ratio of LNP/mRNA was optimized at first using HeLa cells. […] The weight ratio of LNP/mRNA=10/1 was then chose for the following mRNA delivery studies. […] Then the intracellular delivery efficiencies of all fully substituted OCholB LNPs were tested against HeLa cells, and Lpf2k and naked GFP mRNA were used as controls (LNP/mRNA=10/1; [mRNA]=0.86 μg mL^−1; 24 h exposure). […] As to the OCholB LNPs, 75-OCholB (62.0% of GFP^+ cells), 76-OCholB (79.8%), 77-OCholB (73.5%), 78-OCholB (67.1%), 80-OCholB (55.6%), 81-OCholB (51.6%) and 304-OCholB (52.1%) are all determined to be effective. Typical fluorescent images of mRNA/LNPs (mRNA/75-OCholB, mRNA/76-OCholB and mRNA/77-OCholB) treated HeLa cells are shown in FIG. 14C. Comparing to untreated HeLa cells, strong green fluorescent signals were recoded from nanoparticles incubated cells, which is consistent with the flow cytometry data as shown in FIG. 14D. Meanwhile, both 87-OCholB (6.1%) and 90-OCholB (2.5%) are found to be inefficient for GFP mRNA delivery into HeLa cells, which is consistent with the internalization studies using NR (FIG. 12C) and (−30)GFP-Cre protein (FIG. 12F) as the fluorescent reporters.

HeLa-DsRed cells [5] = test: Genome editing efficiency of (−30)GFP-Cre/OCholB LNPs (DsRed+ cells); assay type: cell-based; conditions: (−30)GFP-Cre 25, 50 and 100 nM
Text: In this context, the internalization mechanism of the (−30)GFP-Cre/LNPs complexes was studied at first, by introducing different endocytosis inhibitors, i.e., sucrose (clathrin-mediated endocytosis inhibitor), methyl-β-cyclodextrin (M-β-CD, cholesterol-depleting agent), dynasore (dynamin II inhibitor) and nystatin (caveolin-mediated endocytosis inhibitor), following our previously reported procedures. […] Comparing to other combinatorial library studies, it is clear that even loaded with same cargoes and tested against same cell line, different lipidoids with different chemical structures could be internalized through very distinct pathways. Next, the genome-editing efficiencies of (−30)GFP-Cre/LNPs were determined by flow cytometry after 24 h of incubation (with 8 h of (−30)GFP-Cre/LNPs complex exposure). Three different concentrations of protein/lipidoid complexes (25 nM/1.7 μg mL^−1, 50 nM/3.4 μg mL^−1, and 100 nM/6.6 μg mL^−1) were tested for each lipidoid nanoparticle. […] For example, the DsRed^+ cells were recorded as 10.5%/24.9%/88.9%, 13.5%/55.4%/88.8%, and 27.7%/47.8%/94.7% for (−30)GFP-Cre loaded 75-OCholB, 76-OCholB and 77-OCholB, respectively, at the protein concentration of 25, 50 and 100 nM. […] Then, the cytotoxicity profiles of (−30)GFP-Cre/LNPs, (−30)GFP-Cre/Lpf2k and naked (−30)GFP-Cre at different concentrations against HeLa-DsRed cells (8 h of exposure; (−30)GFP-Cre/LNPs=25 nM/1.7 μg mL^−1, 50 nM/3.4 μg mL^−1, and 100 nM/6.6 μg mL^−1) are measured using MTT assay after 24 h of incubation. […] For (−30)GFP-Cre/75-OCholB treated cells, the viabilities were determined to be 95.5%, 91.8% and 83.1%, at the protein concentration of 25, 50 and 100 nM, respectively; the numbers for (−30)GFP-Cre/76-OCholB and (−30)GFP-Cre/77-OCholB are 97.8%/98.2%/97.2 and 100.9%/96.6%/98.6%. […] Meanwhile, the morphology changes of HeLa-DsRed cell treated with different nanoparticle formulations were studied and the results are shown in FIG. 15E. […] Samples found in upper left quadrant are non-toxic and inefficient for delivery; samples in lower left quadrant are toxic and inefficient; samples in lower right quadrant are efficient but toxic; samples in upper right quadrant are non-toxic and efficient, which would be top candidates for further study. It is clear that Lpf2k (shown in dotted purple circle) at high concentration is relatively efficient for genome editing, while also toxic to the target cells. On the other hand, most of the (−30)GFP-Cre loaded OCholB LNPs are almost non-toxic when compared to (−30)GFP-Cre/Lpf2k, similar to naked (−30)GFP-Cre protein. 87-OCholB, 90-OCholB and 304-OCholB (shown in dotted dark blue circle) are less efficient for genome-editing; while high genome editing efficacy and excellent tolerability were achieved by using 75-OCholB, 76-OCholB and 77-OCholB (shown in dotted green circle).

HeLa-DsRed cells [6] = test: Cre-mediated gene recombination (DsRed expression) after (−30)GFP-Cre/LNP delivery; assay type: cell-based; conditions: 24 h; 25 nM (−30)GFP-Cre; lipidoid 3.3 mg/L
Protocol: (§2) The final (−30)GFP-Cre protein concentration is 25 nM, and lipidoid concentration is 3.3 mg/L. For the gene recombination functional study, HeLa-DsRed cells were treated with same conditions and the red fluorescence emission from DsRed was analyzed by flow cytometry 24 h after delivery.
The top 12 of LNPs identified through intracellular delivery screening experiments were further tested for gene recombination using HeLa-DsRed model cells. The expression of DsRed from Cre protein mediated gene recombination was analyzed after 24 h of co-incubation with free (−30)GFP-Cre protein and protein loaded LNPs. […] Most of the test LNPs, on the other hand, efficiently delivered (−30)GFP-Cre protein and induced gene recombination, with 14-46% of the cells positive for DsRed.

HeLa-DsRed cells [7] = test: Intracellular delivery of (−30)GFP-Cre/LNP (GFP-positive cells); assay type: cell-based; conditions: flow cytometry, 6 h; 25 nM (−30)GFP-Cre; lipidoid 3.3 mg/L
Protocol: as §2
A Cre recombinase protein fused to a negatively supercharged GFP variant ((−30)GFP-Cre) was used as a model cargo protein. The (−30)GFP-Cre protein was able to complex with cationic LNPs through electrostatic attraction and other types supramolecular interactions. The cellular uptake of LNPs could be determined by direct analysis of intracellular GFP fluorescent intensity as reported in Wang. HeLa-DsRed cells were used in this study, which expressed red fluorescent DsRed upon Cre-mediated recombination to facilitate the functional study of delivered proteins in the following study.
The (−30)GFP-Cre protein loaded LNPs (GFP-Cre/LNPs) were prepared at first by simply mixing precalculated amount of aqueous solution of LNPs and protein at ambient conditions. For the intracellular delivery, after incubation with GFP-Cre/LNPs nanoparticles for 6 h, the GFP-positive cells were observed using fluorescence microscopy, harvested and counted by flow cytometry. […] The intracellular (−30)GFP-Cre protein delivery efficiencies were further quantified by flow cytometry.

Compound	increase in averaged hydrodynamic diameter [1]	NR^+ cells (HeLa cells [2])	(−30)GFP-Cre delivery efficiency (GFP^+ cells), overall (HeLa-DsRed cells [3])	GFP^+ cells (HeLa cells [4])	genome editing efficacy (DsRed^+ cells), overall (HeLa-DsRed cells [5])	cells positive for DsRed (protein transfection efficiency) (HeLa-DsRed cells [6])	GFP-positive cells (HeLa-DsRed cells [7])
CC(C)CCCC(C)C1CCC2C3CC=C4CC(OC(=O)NCCSSCCOC(=O)CCN(CCCN(CCO)CCO)CCC(=O)OCCSSCCNC(=O)OC5CCC6(C)C(=CCC7C6CCC6(C)C(C(C)CCCC(C)C)CCC76)C5)CCC4(C)C3CCC12C (stereo not drawn) [Lipidoid 87-OCholB]	210.3%	lowest transfection efficacy, comparable to the untreated control group	lowest delivery efficiencies	6.1%	less efficient at delivery		
CC(C)CCCC(C)C1CCC2C3CC=C4CC(OC(=O)NCCSSCCOC(=O)CCN(CCC(=O)OCCSSCCNC(=O)OC5CCC6(C)C(=CCC7C6CCC6(C)C(C(C)CCCC(C)C)CCC76)C5)CCN5CCOCC5)CCC4(C)C3CCC12C (stereo not drawn) [Lipidoid 90-OCholB]	179.5%	12.9%	lowest delivery efficiencies	2.5%	less efficient at delivery		
CCCCCCCCCCCCCC[Se]CCOC(=O)CCN(CCC(=O)OCC[Se]CCCCCCCCCCCCCC)CCN(C)C [Lipidoid 78-O17Se]						37.8%	
CCCCCCCCCCCCCCSCCOC(=O)CCN(CCC(=O)OCCSCCCCCCCCCCCCCC)CCC1CCCN1C (stereo not drawn) [Lipidoid 77-O17S]						38.6%	
CCCCCCCCCCCCCCSCCOC(=O)CCN(CCCN(C)C)CCC(=O)OCCSCCCCCCCCCCCCCC [Lipidoid 80-O17S]						45.6%	
CCCCCCCCCCCCCC[Se]CCOC(=O)CCN(CCC(=O)OCC[Se]CCCCCCCCCCCCCC)CCC1CCCN1C (stereo not drawn) [Lipidoid 77-O17Se]						31.0%	37%
